Reference: patent EP3502093A1, “ZWITTERIONIC PILLARARENE DERIVATIVE” (Freie Universität Berlin, priority 2017, dated 2019)

Tests used:
E. coli biofilm [1] = assay: treatment of pre-fabricated biofilms of different stages for 24 h, LIVE/DEAD staining; type: cell-based; settings: 200 nM, treated 24 h
Procedure: As depicted in Figure 2, E. coli biofilm in different stages - namely, in colony formation stage (1 day growth ["cultivated 1 + 1 days"]) and in maturation stages (3 days growth ["cultivated 1 + 3 days"] or 5 days growth ["cultivated 1 + 5 days"], respectively), were pre-fabricated according to literature^16 and then treated with a dose of 200 nM ZW-PA nanoparticles, 200 nM ampicillin or PBS for another 24 h. Afterwards, the resulting biofilms on the 2nd day, the 4th day and the 6th day were observed. A LIVE/DEAD staining of the E. coli cells was applied. By this staining, living cells are stained green, while dead cells are stained red. […] Specifically, the biofilm height increased from 8 µm on the 2nd day (1st + 1 day) to 25 µm on the 6th day (1st + 5 days). Only green (living) cells could be observed. The scale bars in all plots of Figure 2 represent 50 µm.

E. coli biofilm [2] = assay: prolonged incubation (24 h, 72 h, 120 h) of 1-day pre-fabricated biofilm, regrowth and resistance; type: cell-based; settings: 1-day biofilm, 200 nM
Procedure: Biofilms are considered to be highly resistant to antibacterial agents due to restricted penetration of antibacterial agents into biofilms, slow growth owing to nutrient limitation, expression of genes involved in the general stress response, and emergence of a biofilm-specific phenotype. Thus, it is important to investigate the emergence of resistances against a new antibacterial agent used for combating biofilms. Therefore, ZW-PA nanoparticles in a concentration of 200 nM were applied to a biofilm pre-fabricated for 1 day. Subsequently, the biofilm was incubated with ZW-PA nanoparticles and investigated after 1 day incubation (24 h, cultivated 1 + 1 days), after 3 days incubation (72 h, cultivated 1 + 3 days), and after 5 days incubation (120 h, cultivated 1 + 5 days). PBS and 200 nM ampicillin were used as controls. The scale bars in all plots of Figure 3 represent 50 µm.

[3] = biofilm grown 1 day (1 + 1 days)
[4] = biofilm grown 5 days (1 + 5 days)

Structure (SMILES): CC1(C)S[C@@H]2[C@H](NC(=O)[C@H](N)c3ccccc3)C(=O)N2[C@H]1C(=O)O [ampicillin]
- LIVE/DEAD staining, killing of cells in biofilm (E. coli biofilm [1]; [3]): less than the half of the cells, were stained red
- biofilm height (E. coli biofilm [1]; [3]): 5 µm
- LIVE/DEAD staining, killing of cells in biofilm (E. coli biofilm [1]; biofilm grown 3 days (1 + 3 days)): most of the cells were still alive
- LIVE/DEAD staining, killing of cells in biofilm (E. coli biofilm [1]; [4]): effective only against the cells on the surface layer of the biofilm
- biofilm height (E. coli biofilm [1]; [4]): 24 µm
- LIVE/DEAD staining, killing of cells in biofilm (E. coli biofilm [2]; 24 h incubation (1 + 1 days)): a part of the cells could be killed
- LIVE/DEAD staining, living versus dead cells (E. coli biofilm [2]; 72 h incubation (1 + 3 days)): more green than red cells
- LIVE/DEAD staining, living versus dead cells (E. coli biofilm [2]; 120 h incubation (1 + 5 days)): more red than green cells
- cell density and reformation of the biofilm on further incubation (E. coli biofilm [2]; further incubated to 72 h and 120 h): the biofilm could gradually reform
